For orientation: IC50 means the midpoint of a concentration-inhibition curve.

The values that follow come from patent US11274092B2, “Potassium channel inhibitors” (ACESION PHARMA ApS, priority 2016, dated 2022).

In this experiment the target is T1, human SK3 channel (hKCa2.3) (Homo sapiens, UniProt Q9UGI6).
T1 construct: expressed in transfected cells
As to the kind of experiment: Automated whole cell patch-clamp (QPatch 16 HT), inhibition of SK3 current. It counts as cell-based. As to conditions: HEK-293 cells stably expressing hKCa2.3; symmetrical K+ solutions, free calcium 400 nM; effects normalized to N-methyl bicuculline. On the procedure: Automated whole cell patch-clamp recordings were performed using a QPatch 16 HT system and single-hole Qplates (Biolin Scientific, Sophion, Denmark) on HEK-293 cells stably expressing the human SK3 channel (hKCa2.3). Cells were cultured and prepared for experiments using normal cell culturing procedures. A total of 4-5 million cells were used per experiment. The Qpatch automatically generates giga sealing, whole-cell formation, compound application and recording of current. hKCa2.3 currents were recorded in symmetrical K^+ solutions, with an intracellular solution consisting of in mM: KCl 108; KOH/EGTA (ethylene glycol-bis(2-aminoethylether)-N,N,N′,N′-tetraacetic acid) 31.25/10; CaCl2) 8.1; MgCl2 1.2; HEPES (2-[4-(2-hydroxyethyl)piperazin-1-yl]ethanesulfonic acid) 10; KOH 15, pH adjusted to pH=7.2 with HCl. The free calcium concentration was calculated to 400 nM. The extracellular solution consisted of in mM: KCl 150; CaCl2) 0.1; MgCl2 3; HEPES 10; Glucose 10, pH=7.4 with KOH. The cells were held at 0 mV and hKCa2.3 currents were elicited by a linear voltage ramp from […] (200 ms in duration) applied every 5th second. The compound application protocol consisted of 12 recording periods lasting from 50-200 s: 1) Baseline recordings in extracellular solution; 2) Application of the positive control N-methyl bicuculline (100 μM), which is characterized by full efficacy, fast on- and off-rate; 3-4) Wash-out; 5-9) Increasing concentrations of test compound to establish an IC50 value; 10-11) Wash-out; 12) positive control with compound NS8593 (N-[(1R)-1,2,3,4-tetrahydro-1-naphthalenyl]-1H-benzimidazol-2-amine) (1 μM). Data were sampled at 10 kHz, 4th order Bessel filter, cut-off frequency 3 kHz. Currents were compensated for run-down. Potency was quantified as the concentration needed to inhibit half of the SK channel activity and reported as an IC50 value. All effects of compounds of the present invention as tested were normalized to the observed inhibitory effect of N-methyl bicuculline.
On the technique in general: In patch-clamp work, channel activity is measured electrically.
Turning to `COC(=O)CNC(=O)CC(Nc1nc2ccccc2[nH]1)c1cccc(C(F)(F)F)c1` (single isomer, unassigned; (-)) [Example 59a, (−)Methyl 2-{3-[(1H-1,3-benzodiazol-2-yl)amino]-3-[3-(trifluoromethyl)phenyl]propanamido}acetate], the IC50 is below 10 µM.

For the compound `COCCNC(=O)CC(C)(Nc1nc2cc(F)ccc2[nH]1)c1cccc(C(F)(F)F)c1` (stereo not shown) [Example 91, 3-[(5-fluoro-1H-1,3-benzodiazol-2-yl)amino]-N-(2-methoxyethyl)-3-[3-(trifluoromethyl)phenyl]butanamide], the IC50 is below 10 µM.

In the case of `O=C(CC(Nc1nc2ccccc2[nH]1)c1cccc(C(F)(F)F)c1)NCCOC(F)(F)F` (single isomer, unassigned) [Example 67a, 3-[(1H-1,3-benzodiazol-2-yl)amino]-N-[2-(trifluoromethoxy)ethyl]-3-[3-(trifluoromethyl)phenyl]propanamide], the IC50 was below 10 µM.

As to `COCCNC(=O)CC(Nc1nc2ccccc2[nH]1)c1cccc(C(F)(F)F)c1` (single isomer, unassigned; (-)) [Example 42a, (−)3-[(1H-1,3-benzodiazol-2-yl)amino]-N-(2-methoxyethyl)-3-[3-(trifluoromethyl)phenyl]propanamide], the IC50 is below 10 µM.

Turning to `O=C(CC(Nc1nc2ccccc2[nH]1)c1cccc(C(F)(F)F)c1)NCC1COC1` (stereo not shown) [Example 7, 3-[(1H-1,3-benzodiazol-2-yl)amino]-N-(oxetan-3-ylmethyl)-3-[3-(trifluoromethyl)phenyl]propanamide], the IC50 lay within 10 to 100 µM.

On to `CCN(CCO)C(=O)CC(Nc1nc2c(CO)cccc2[nH]1)c1cccc(C(F)(F)F)c1` (stereo not shown) [Example 49, N-ethyl-N-(2-hydroxyethyl)-3-{[4-(hydroxymethyl)-1H-1,3-benzodiazol-2-yl]amino}-3-[3-(trifluoromethyl)phenyl]propanamide], for which the IC50 lay within 10 to 100 µM.

For the compound `COCC(C)NC(=O)CC(Nc1nc2ccccc2[nH]1)c1cccc(C(F)(F)F)c1` (stereo not shown) [Example 73, 3-[(1H-1,3-benzodiazol-2-yl)amino]-N-(1-methoxypropan-2-yl)-3-[3-(trifluoromethyl)phenyl]propanamide], the IC50 is below 10 µM.

As for `CCN(CCN(C)C)C(=O)CC(Nc1nc2ccccc2[nH]1)c1cccc(C(F)(F)F)c1` (stereo not shown) [Example 45, 3-[(1H-1,3-benzodiazol-2-yl)amino]-N-[2-(dimethylamino)ethyl]-N-ethyl-3-[3-(trifluoromethyl)phenyl]propanamide], the 50% inhibitory concentration (IC50) lay in the range of 10 to 100 µM.

In the case of `C[N+]1(C)CCN(C(=O)C(Nc2nc3ccccc3[nH]2)c2cccc(C(F)(F)F)c2)CC1` (stereo not shown) [Example 37, 4-{2-[(1H-1,3-benzodiazol-2-yl)amino]-2-[3-(trifluoromethyl)phenyl]acetyl}-1,1-dimethylpiperazin-1-ium iodide], the IC50 was 10 to 100 µM.

`O=C(CC(Nc1nc2ccccc2[nH]1)c1cccc(C(F)(F)F)c1)NCCOC(F)(F)F` (stereo not shown) [Example 67, 3-[(1H-1,3-benzodiazol-2-yl)amino]-N-[2-(trifluoromethoxy)ethyl]-3-[3-(trifluoromethyl)phenyl]propanamide]: the IC50 is below 10 µM.

Turning to `CCN(CCO)C(=O)C(Cc1cccc(C(F)(F)F)c1)Nc1nc2ccccc2[nH]1` (stereo not shown) [Example 64, 2-[(1H-1,3-benzodiazol-2-yl)amino]-N-ethyl-N-(2-hydroxyethyl)-3-[3-(trifluoromethyl)phenyl]propanamide], the IC50 was 10 to 100 µM.

For the compound `O=C(CC(Nc1nc2ccccc2[nH]1)c1cccc(C(F)(F)F)c1)NCCOCC(F)(F)F` (single isomer, unassigned) [Example 68a, 3-[(1H-1,3-benzodiazol-2-yl)amino]-N-[2-(2,2,2-trifluoroethoxy)ethyl]-3-[3-(trifluoromethyl)phenyl]propanamide], the IC50 is below 10 µM.

For the compound `CN(C)C(=O)CNC(=O)CC(Nc1nc2ccccc2[nH]1)c1cccc(C(F)(F)F)c1` (stereo not shown) [Example 22, 3-[(1H-1,3-benzodiazol-2-yl)amino]-N-[(dimethylcarbamoyl)methyl]-3-[3-(trifluoromethyl)phenyl]propanamide], the IC50 was below 10 µM.

In the case of `COCCNC(=O)CC(Nc1nc2ccccc2[nH]1)c1cc(C)c(F)c(C)c1` (stereo not shown) [Example 80, 3-[(1H-1,3-benzodiazol-2-yl)amino]-3-(4-fluoro-3,5-dimethylphenyl)-N-(2-methoxyethyl)propanamide], the concentration for half-maximal inhibition (IC50) is below 10 µM.

With `CN(CC#N)C(=O)CC(Nc1nc2ccccc2[nH]1)c1cccc(C(F)(F)F)c1` (single isomer, unassigned; (-)) [Example 56a, (−)3-[(1H-1,3-benzodiazol-2-yl)amino]-N-(cyanomethyl)-N-methyl-3-[3-(trifluoromethyl)phenyl]propanamide], the half-maximal inhibitory concentration (IC50) was below 10 µM.

`COC(=O)[C@@H](C)NC(=O)CC(Nc1nc2ccccc2[nH]1)c1cccc(C(F)(F)F)c1` (stereo partly drawn) [Example 46, Methyl (2R)-2-{3-[(1H-1,3-benzodiazol-2-yl)amino]-3-[3-(trifluoromethyl)phenyl]propanamido}propanoate]: the IC50 was below 10 µM.

For `COCCNC(=O)CC(Nc1nc2ccccc2[nH]1)c1cccc(SC2CCC2)c1` (stereo not shown) [Example 87, 3-[(1H-1,3-benzodiazol-2-yl)amino]-3-[3-(cyclobutylsulfanyl)phenyl]-N-(2-methoxyethyl)propanamide], the IC50 was below 10 µM.

As to `CCN(CCO)C(=O)CC(Nc1nc2ccccc2[nH]1)c1cccc(C(F)(F)F)c1` (stereo not shown) [Example 41, 3-[(1H-1,3-benzodiazol-2-yl)amino]-N-ethyl-N-(2-hydroxy-ethyl)-3-[3-(trifluoromethyl)phenyl]propanamide], the half-maximal inhibitory concentration (IC50) is below 10 µM.

On to `O=C(CC(Nc1nc2ccccc2[nH]1)c1cccc(C(F)(F)F)c1)N[C@H]1CCOC1` (stereo partly drawn) [Example 9, 3-[(1H-1,3-benzodiazol-2-yl)amino]-N-[(3S)-oxolan-3-yl]-3-[3-(trifluoromethyl)phenyl]propanamide], for which the IC50 was below 10 µM.

On to `O=C(C(Nc1nc2ccccc2[nH]1)c1cccc(C(F)(F)F)c1)N1CCC1` (single isomer, unassigned; (+)) [Example 34a, (+)1-(azetidin-1-yl)-2-[(1H-1,3-benzodiazol-2-yl)amino]-2-[3-(trifluoromethyl)phenyl]ethan-1-one], for which the IC50 is below 10 µM.

Turning to `CN(C)C1CN(C(=O)C(Nc2nc3ccccc3[nH]2)c2cccc(C(F)(F)F)c2)C1` (stereo not shown) [Example 28, 2-[(1H-1,3-benzodiazol-2-yl)amino]-1-[3-(dimethylamino)azetidin-1-yl]-2-[3-(trifluoromethyl)phenyl]ethan-1-one], the IC50 is 10 to 100 µM.

Turning to `O=C(CC(Nc1nc2ccccc2[nH]1)c1cccc(OC(F)(F)F)c1)NCCOC(F)(F)F` (stereo not shown) [Example 83, 3-[(1H-1,3-benzodiazol-2-yl)amino]-N-[2-(trifluoromethoxy)ethyl]-3-[3-(trifluoromethoxy)phenyl]propanamide], the IC50 is below 10 µM.

Turning to `CCN(CC#N)C(=O)CC(Nc1nc2c(CCO)cccc2[nH]1)c1cccc(C(F)(F)F)c1` (stereo not shown) [Example 52, N-(cyanomethyl)-N-ethyl-3-{[4-(2-hydroxyethyl)-1H-1,3-benzodiazol-2-yl]amino}-3-[3-(trifluoromethyl)phenyl]propanamide], the concentration for half-maximal inhibition (IC50) lay in the range of 10 to 100 µM.

Regarding `CN(CCCO)C(=O)CC(Nc1nc2ccccc2[nH]1)c1cccc(C(F)(F)F)c1` (single isomer, unassigned; (-)) [Example 17a, (−) 3-[(1H-1,3-benzodiazol-2-yl)amino]-N-(3-hydroxypropyl)-N-methyl-3-[3-(trifluoromethyl)phenyl]propanamide], the IC50 is below 10 µM.

As to `O=C(CC(Nc1nc2ccccc2[nH]1)c1cccc(C(F)(F)F)c1)NCc1cncnc1` (stereo not shown) [Example 78, 3-[(1H-1,3-benzodiazol-2-yl)amino]-N-(pyrimidin-5-ylmethyl)-3-[3-(trifluoromethyl)phenyl]propanamide], the IC50 was below 10 µM.

As to `O=C(NC1COC1)C(Nc1nc2ccccc2[nH]1)c1cccc(C(F)(F)F)c1` (stereo not shown) [Example 35, 2-[(1H-1,3-benzodiazol-2-yl)amino]-N-(oxetan-3-yl)-2-[3-(trifluoromethyl)phenyl]acetamide], the IC50 was 10 to 100 µM.

In the case of `O=C(CC(Nc1nc2ccccc2[nH]1)c1cccc(SC(F)(F)F)c1)NCc1nc2ccccc2o1` (stereo not shown) [Example 89, 3-[(1H-1,3-benzodiazol-2-yl)amino]-N-(1,3-benzoxazol-2-ylmethyl)-3-{3-[(trifluoromethyl)sulfanyl]phenyl}propanamide], the IC50 was below 10 µM.

Take `COCCNC(=O)CC(Nc1nc2ccccc2[nH]1)c1cccc(SC(F)(F)F)c1` (stereo not shown) [Example 82, 3-[(1H-1,3-benzodiazol-2-yl)amino]-N-(2-methoxyethyl)-3-{3-[(trifluoromethyl)sulfanyl]phenyl}propanamide]: the 50% inhibitory concentration (IC50) is below 10 µM.
